Test results: ChEMBL document CHEMBL5576123, “Interaction of Cephalosporins with Human Serum Albumin: A Structural Study” (J Med Chem, 2024)
Values after ≈ are worked out from the molar mass of the structure shown. Active and inactive are the calls of the source. The calls are words filed in the database; no cut-off is given here.

Legend:
[1] = Protein binding in plasma (unknown origin); format: ADME, cell-free; details: read-out: PPB (converted)
Escherichia coli [2] = assay: Ratio of MIC>90 against Escherichia coli ATCC 25922 in presence of HSA to MIC>90 against Escherichia coli ATCC 25922 in absence of HSA; format: functional
Escherichia coli [3] = assay: Antibacterial activity against Escherichia coli ATCC 25922 assessed as inhibition of bacterial growth incubated for 24 hrs in absence of HSA by broth microdilution method; format: functional
Escherichia coli [4] = assay: Antibacterial activity against Escherichia coli ATCC 25922 assessed as inhibition of bacterial growth incubated for 24 hrs in presence of HSA by broth microdilution method; format: functional
Escherichia coli [5] = assay: Antibacterial activity against Escherichia coli ATCC 25922 assessed as inhibition of bacterial growth at 0.6 mM incubated for 24 hrs by broth microdilution method; format: functional, organism-based
Albumin [6] = molecular target: T1, Albumin (Homo sapiens, UniProt P02768); assay: Binding affinity to human serum albumin incubated for 18 hrs in presence of 40 uM bicalutamide by equilibrium dialysis method; format: ADME; details: isolated protein
Escherichia coli [7] = assay: Antibacterial activity against Escherichia coli ATCC 25922 assessed as inhibition of bacterial growth incubated for 24 hrs in presence of warfarin by broth microdilution method; format: functional
Albumin [8] = molecular target: T1, Albumin; assay: Binding affinity to human serum albumin incubated for 18 hrs by equilibrium dialysis method; format: ADME; details: isolated protein
Albumin [9] = molecular target: T1, Albumin; assay: Binding affinity to human serum albumin incubated for 18 hrs in presence of 80 uM bicalutamide by equilibrium dialysis method; format: ADME; details: isolated protein
Escherichia coli [10] = assay: Antibacterial activity against Escherichia coli ATCC 25922 assessed as inhibition of bacterial growth at 0 to 8 ug/ml incubated for 24 hrs in presence of HSA by broth microdilution method; format: functional, organism-based; details: dose 0-8 µg/ml

T1 sequence (P02768 whole entry): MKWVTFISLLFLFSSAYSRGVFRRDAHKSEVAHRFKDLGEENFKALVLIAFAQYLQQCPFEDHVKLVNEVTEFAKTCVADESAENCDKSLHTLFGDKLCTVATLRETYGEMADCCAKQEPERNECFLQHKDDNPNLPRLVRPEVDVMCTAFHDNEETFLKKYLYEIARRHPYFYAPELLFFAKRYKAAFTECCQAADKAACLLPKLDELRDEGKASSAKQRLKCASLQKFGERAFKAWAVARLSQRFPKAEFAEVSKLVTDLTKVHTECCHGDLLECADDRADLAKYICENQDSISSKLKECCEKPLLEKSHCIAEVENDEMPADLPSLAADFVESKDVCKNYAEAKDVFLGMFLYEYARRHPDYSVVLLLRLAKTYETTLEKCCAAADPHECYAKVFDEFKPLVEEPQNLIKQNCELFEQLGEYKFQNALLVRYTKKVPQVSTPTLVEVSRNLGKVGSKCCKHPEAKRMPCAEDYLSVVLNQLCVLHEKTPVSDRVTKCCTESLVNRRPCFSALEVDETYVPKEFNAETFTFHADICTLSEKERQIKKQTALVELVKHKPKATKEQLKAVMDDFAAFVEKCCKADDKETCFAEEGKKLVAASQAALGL

C=CC1=C(C(=O)O)N2C(=O)[C@@H](NC(=O)/C(=N\OCC(=O)O)c3csc(N)n3)[C@H]2SC1 [CEFIXIME]
fraction unbound [1]: 0.35

Cc1nnc(SCC2=C(C(=O)O)N3C(=O)[C@@H](NC(=O)Cn4cnnn4)[C@H]3SC2)s1 [CEFAZOLIN]
fraction unbound [1]: 0.2 | Ratio (Escherichia coli [2]): 2 | MIC90 (Escherichia coli [3]): 2 µg/mL (≈ 4.4 µM) | MIC90 (Escherichia coli [4]): 4 µg/mL

CO/N=C(\C(=O)N[C@@H]1C(=O)N2C(C(=O)O)=C(/C=C\c3scnc3C)CS[C@H]12)c1csc(N)n1 [CEFDITOREN]
fraction unbound [1]: 0.12

CC(O)(CS(=O)(=O)c1ccc(F)cc1)C(=O)Nc1ccc(C#N)c(C(F)(F)F)c1 (centres undefined)
Activity (Escherichia coli [5]): inactive

CCCCC1C(=O)N(c2ccccc2)N(c2ccccc2)C1=O
Activity (Escherichia coli [5]): inactive

CO/N=C(\C(=O)N[C@@H]1C(=O)N2C(C(=O)O)=CCS[C@H]12)c1csc(N)n1 [CEFTIZOXIME]
fraction unbound [1]: 0.7

CC(C)(O/N=C(\C(=O)N[C@@H]1C(=O)N2C(C(=O)[O-])=C(C[n+]3ccccc3)CS[C@H]12)c1csc(N)n1)C(=O)O [CEFTAZIDIME]
fraction unbound [1]: 0.91

C=CC1=C(C(=O)O)N2C(=O)[C@@H](NC(=O)/C(=N\O)c3csc(N)n3)[C@H]2SC1
fraction unbound [1]: 0.3

CO/N=C(\C(=O)N[C@@H]1C(=O)N2C(C(=O)O)=C(CSc3nc(=O)c(=O)[nH]n3C)CS[C@H]12)c1csc(N)n1 [CEFTRIAXONE]
K (Albumin [6]): 5.01 10^4/M | fraction unbound [1]: 0.05 | MIC90 (Escherichia coli [7]): 0.25 µg/mL | K (Albumin [8]): 8.5 10^4/M | K (Albumin [9]): 1.3 10^4/M | MIC90 (Escherichia coli [3]): ≤ 0.12 µg/mL | MIC90 (Escherichia coli [4]): 1 µg/mL

CC=CC1=C(C(=O)O)N2C(=O)[C@@H](NC(=O)[C@H](N)c3ccc(O)cc3)[C@H]2SC1 [CEFPROZIL]
fraction unbound [1]: 0.64

CO/N=C(\C(=O)N[C@@H]1C(=O)N2C(C(=O)[O-])=C(C[n+]3cccc4c3CCC4)CS[C@H]12)c1csc(N)n1 [CEFPIROME]
fraction unbound [1]: 0.9

CC1=C(C(=O)O)N2C(=O)[C@@H](NC(=O)[C@H](N)c3ccc(O)cc3)[C@H]2SC1 [CEFADROXIL]
fraction unbound [1]: 0.8

CO/N=C(\C(=O)N[C@@H]1C(=O)N2C(C(=O)[O-])=C(C[N+]3(C)CCCC3)CS[C@H]12)c1csc(N)n1
fraction unbound [1]: 0.8

N[C@@H](C(=O)N[C@@H]1C(=O)N2C(C(=O)O)=C(Cl)CS[C@H]12)c1ccccc1 [CEFACLOR ANHYDROUS]
fraction unbound [1]: 0.75

CO[C@@]1(NC(=O)Cc2cccs2)C(=O)N2C(C(=O)O)=C(COC(N)=O)CS[C@@H]21 [CEFOXITIN]
fraction unbound [1]: 0.21

Cn1c(N)c(NC(=O)NCCN)c[n+]1CC1=C(C(=O)O)N2C(=O)[C@@H](NC(=O)/C(=N\OC(C)(C)C(=O)[O-])c3nsc(N)n3)[C@H]2SC1 [CEFTOLOZANE]
fraction unbound [1]: 0.8

CO/N=C(\C(=O)N[C@@H]1C(=O)N2C(C(=O)O)=C(COC(N)=O)CS[C@H]12)c1ccco1 [CEFUROXIME]
fraction unbound [1]: 0.5

Nc1nc(/C(=N/O)C(=O)N[C@@H]2C(=O)N3C(C(=O)O)=C(/C=C4\CCN([C@@H]5CCNC5)C4=O)CS[C@H]23)ns1 [CEFTOBIPROLE]
fraction unbound [1]: 0.84

Nc1nc(/C(=C/CC(=O)O)C(=O)N[C@@H]2C(=O)N3C(C(=O)O)=CCS[C@H]23)cs1 [CEFTIBUTEN]
fraction unbound [1]: 0.35

CO/N=C(\C(=O)N[C@@H]1C(=O)N2C(C(=O)O)=C(COC(C)=O)CS[C@H]12)c1csc(N)n1 [CEFOTAXIME]
fraction unbound [1]: 0.5

CO[C@@]1(NC(=O)C2SC(=C(C(N)=O)C(=O)O)S2)C(=O)N2C(C(=O)O)=C(CSc3nnnn3C)CS[C@@H]21 (some centres undefined) [CEFOTETAN]
fraction unbound [1]: 0.12 | Activity (Escherichia coli [10]): inactive

CCO/N=C(\C(=O)N[C@@H]1C(=O)N2C(C(=O)[O-])=C(Sc3nc(-c4cc[n+](C)cc4)cs3)CS[C@H]12)c1nsc(N)n1 [CEFTAROLINE]
fraction unbound [1]: 0.8

COCC1=C(C(=O)O)N2C(=O)[C@@H](NC(=O)/C(=N\OC)c3csc(N)n3)[C@H]2SC1 [CEFPODOXIME]
fraction unbound [1]: 0.17

CN1C(=O)CN=C(c2ccccc2)c2cc(Cl)ccc21
Activity (Escherichia coli [5]): inactive
